Source: patent US20120122148A1, “Media For The Specific Detection Of Gram-Negative Bacteria Resistant To Beta-Lactam Antibiotics” (bioMerieux, SA, priority 2009, published 2012)

Legend:
Type in all cases: cell-based
[1] = system: Enterobacter spp 0503037 (Wild-type); experiment: Growth and enzymatic activity on ChromID CPS-based selective media; conditions: cefpodoxime 4 mg/l (T), cefepime 0.25 mg/l (A), cefamandole 3 mg/l (B), cefuroxime 3 mg/l (C), each with 300 mg/l cloxacillin
Excerpt: (§1) Choice of strains: The inventors selected strains which make it possible to evaluate the activity of antibiotics with respect to Gram-negative species: enterobacteria and nonfermenting bacilli. In particular, ESBL-producing strains, high-level cephalosporinase-producing strains (HL Case) and strains without a particular resistance profile, termed wild-type strains, were used.
(§2) Preparation of media: The media tested were media composed of the peptone base of the ChromID CPS medium (bioMérieux ref 43541) to which were added, after autoclaving, in molten media, 300 mg/l cloxacillin and, for medium T: 4 mg/l cefpodoxime, for medium A: 0.25 mg/L of cefepime, for medium B: 3 mg/l of cefamandole and for medium C: 3 mg/l of cefuroxime.
(§3) Inoculation of media: The media are inoculated by carrying out a 3-quadrant streaking method using bacterial suspensions at 0.5 McF. The media are then incubated for 24 hours at 37° C.
(§4) Reading of media: The media are observed visually after 18 h and 24 hours of incubation, the growth density and also the colorations and coloration strengths are evaluated according to the scale below: • − or 0: absence of growth or of expression of enzymatic acitivity (i.e. no coloration) • +: weak growth, or enzymatic activity • ++: very strong growth density or strong enzymatic acitivity (very strong coloration)

[2] = system: Klebsiella oxytoca 0105100 (HL case); experiment: as above; conditions: cefpodoxime 4 mg/l (T), cefepime 0.25 mg/l (A), cefamandole 3 mg/l (B), cefuroxime 3 mg/l (C), each with 300 mg/l cloxacillin
Excerpt: as §1, §2, §3, §4

[3] = system: Morganella morganii 9904104 (HL case); experiment: as above; conditions: cefpodoxime 4 mg/l (T), cefepime 0.25 mg/l (A), cefamandole 3 mg/l (B), cefuroxime 3 mg/l (C), each with 300 mg/l cloxacillin
Excerpt: as §1, §2, §3, §4

[4] = system: Proteus mirabilis 0105105 (HL case); experiment: as above; conditions: cefpodoxime 4 mg/l (T), cefepime 0.25 mg/l (A), cefamandole 3 mg/l (B), cefuroxime 3 mg/l (C), each with 300 mg/l cloxacillin
Excerpt: as §1, §2, §3, §4

[5] = system: Proteus mirabilis 0105109 (HL case); experiment: as above; conditions: cefpodoxime 4 mg/l (T), cefepime 0.25 mg/l (A), cefamandole 3 mg/l (B), cefuroxime 3 mg/l (C), each with 300 mg/l cloxacillin
Excerpt: as §1, §2, §3, §4

[6] = system: Proteus mirabilis 9709068 (ESBL); experiment: as above; conditions: cefpodoxime 4 mg/l (T), cefepime 0.25 mg/l (A), cefamandole 3 mg/l (B), cefuroxime 3 mg/l (C), each with 300 mg/l cloxacillin
Excerpt: as §1, §2, §3, §4

[7] = system: Serratia fonticola 8001047 (Wild-type); experiment: as above; conditions: cefpodoxime 4 mg/l (T), cefepime 0.25 mg/l (A), cefamandole 3 mg/l (B), cefuroxime 3 mg/l (C), each with 300 mg/l cloxacillin
Excerpt: as §1, §2, §3, §4

[8] = system: Enterobacter aerogenes 0502112 (ESBL); experiment: as above; set-up: key to the marks not given beside the values; conditions: cefpodoxime 4 mg/l (T), cefepime 0.25 mg/l (A), cefamandole 3 mg/l (B), cefuroxime 3 mg/l (C), each with 300 mg/l cloxacillin
Excerpt: as §1, §2, §3, §4

[9] = system: Enterobacter spp 9306069 (HL case); experiment: as above; set-up: key to the marks not given beside the values; conditions: cefpodoxime 4 mg/l (T), cefepime 0.25 mg/l (A), cefamandole 3 mg/l (B), cefuroxime 3 mg/l (C), each with 300 mg/l cloxacillin
Excerpt: as §1, §2, §3, §4

[10] = system: Escherichia coli 0411146 (ESBL); experiment: as above; set-up: key to the marks not given beside the values; conditions: cefpodoxime 4 mg/l (T), cefepime 0.25 mg/l (A), cefamandole 3 mg/l (B), cefuroxime 3 mg/l (C), each with 300 mg/l cloxacillin
Excerpt: as §1, §2, §3, §4

[11] = system: Klebsiella oxytoca 0502094 (ESBL); experiment: as above; set-up: key to the marks not given beside the values; conditions: cefpodoxime 4 mg/l (T), cefepime 0.25 mg/l (A), cefamandole 3 mg/l (B), cefuroxime 3 mg/l (C), each with 300 mg/l cloxacillin
Excerpt: as §1, §2, §3, §4

[12] = system: Escherichia coli 0505101 (ESBL); experiment: as above; set-up: Enz act.: key to the marks not given beside the values; conditions: cefpodoxime 4 mg/l (T), cefepime 0.25 mg/l (A), cefamandole 3 mg/l (B), cefuroxime 3 mg/l (C), each with 300 mg/l cloxacillin
Excerpt: as §1, §2, §3, §4

[13] = system: ESBL-producing strains, strains producing an HL Case, wild-type taxon strains; experiment: Overall conclusion on the selective media over the strain panel
Excerpt: as §1, §2, §3, §4

## Cn1nnnc1SCC1=C(C(=O)O)N2C(=O)[C@@H](NC(=O)[C@H](O)c3ccccc3)[C@H]2SC1 [Cefamandole, cefamandole]
[1]; 18 h at 37° C.
  Enz act.: ++
  Growth: ++
[1]; 24 h at 37° C.
  Enz act.: ++
  Growth: ++
[2]; 18 h at 37° C.
  Enz act.: +
  Growth: +
[2]; 24 h at 37° C.
  Enz act.: ++
  Growth: +
[3]; 18 h at 37° C.
  Enz act.: −
  Growth: −
[3]; 24 h at 37° C.
  Enz act.: −
  Growth: −
[4]; 18 h at 37° C.
  Enz act.: −
  Growth: −
[4]; 24 h at 37° C.
  Enz act.: −
  Growth: −
[5]; 18 h at 37° C.
  Enz act.: −
  Growth: −
[5]; 24 h at 37° C.
  Enz act.: −
  Growth: −
[6]; 18 h at 37° C.
  Enz act.: −
  Growth: +
[6]; 24 h at 37° C.
  Enz act.: +
  Growth: +
[7]; 18 h at 37° C.
  Enz act.: +
  Growth: +
[7]; 24 h at 37° C.
  Enz act.: ++
  Growth: +
[8]; 18 h at 37° C.
  Enz act.: ++
  Growth: ++
[8]; 24 h at 37° C.
  Enz act.: ++
  Growth: ++
[9]; 18 h at 37° C.
  Enz act.: ++
  Growth: ++
[9]; 24 h at 37° C.
  Enz act.: ++
  Growth: ++
[10]; 18 h at 37° C.
  Enz act.: ++
  Growth: ++
[10]; 24 h at 37° C.
  Enz act.: ++
  Growth: ++
[11]; 18 h at 37° C.
  Enz act.: ++
  Growth: ++
[11]; 24 h at 37° C.
  Enz act.: ++
  Growth: ++
[12]; 18 h at 37° C.
  Enz act.: ++
  Growth: ++
[12]; 24 h at 37° C.
  Enz act.: ++
  Growth: ++

## CO/N=C(\C(=O)N[C@@H]1C(=O)N2C(C(=O)[O-])=C(C[N+]3(C)CCCC3)CS[C@H]12)c1csc(N)n1 [Cefepime, cefepime]
[1]; 18 h at 37° C.
  Enz act.: −
  Growth: −
[1]; 24 h at 37° C.
  Enz act.: −
  Growth: −
[2]; 18 h at 37° C.
  Enz act.: −
  Growth: −
[2]; 24 h at 37° C.
  Enz act.: −
  Growth: −
[3]; 18 h at 37° C.
  Enz act.: −
  Growth: −
[3]; 24 h at 37° C.
  Enz act.: −
  Growth: −
[4]; 18 h at 37° C.
  Enz act.: −
  Growth: −
[4]; 24 h at 37° C.
  Enz act.: −
  Growth: −
[5]; 18 h at 37° C.
  Enz act.: −
  Growth: −
[5]; 24 h at 37° C.
  Enz act.: −
  Growth: −
[6]; 18 h at 37° C.
  Enz act.: +
  Growth: +
[6]; 24 h at 37° C.
  Enz act.: +
  Growth: +
[7]; 18 h at 37° C.
  Enz act.: −
  Growth: −
[7]; 24 h at 37° C.
  Enz act.: −
  Growth: −
[8]; 18 h at 37° C.
  Enz act.: ++
  Growth: ++
[8]; 24 h at 37° C.
  Enz act.: ++
  Growth: ++
[9]; 18 h at 37° C.
  Enz act.: ++
  Growth: ++
[9]; 24 h at 37° C.
  Enz act.: ++
  Growth: ++
[10]; 18 h at 37° C.
  Enz act.: ++
  Growth: ++
[10]; 24 h at 37° C.
  Enz act.: ++
  Growth: ++
[11]; 18 h at 37° C.
  Enz act.: ++
  Growth: ++
[11]; 24 h at 37° C.
  Enz act.: ++
  Growth: ++
[12]; 18 h at 37° C.
  Enz act.: ++
  Growth: ++
[12]; 24 h at 37° C.
  Enz act.: ++
  Growth: ++
[13]; compared with cefpodoxime, cefamandole, cefuroxime media
  sensitivity and specificity of detection of the ESBL strains: best sensitivity and specificity
[13]; medium A: 0.25 mg/L cefepime with 300 mg/l cloxacillin
  discrimination between the ESBL-producing strains, the strains producing an HL Case or the wild-type taxon strains: good discrimination

## COCC1=C(C(=O)O)N2C(=O)[C@@H](NC(=O)/C(=N\OC)c3csc(N)n3)[C@H]2SC1 [Cefpodoxime, cefpodoxime]
[1]; 18 h at 37° C.
  Enz act.: ++
  Growth: ++
[1]; 24 h at 37° C.
  Enz act.: ++
  Growth: ++
[2]; 18 h at 37° C.
  Enz act.: ++
  Growth: ++
[2]; 24 h at 37° C.
  Enz act.: ++
  Growth: ++
[3]; 18 h at 37° C.
  Enz act.: −
  Growth: −
[3]; 24 h at 37° C.
  Enz act.: −
  Growth: −
[4]; 18 h at 37° C.
  Enz act.: −
  Growth: −
[4]; 24 h at 37° C.
  Enz act.: −
  Growth: −
[5]; 18 h at 37° C.
  Enz act.: −
  Growth: −
[5]; 24 h at 37° C.
  Enz act.: −
  Growth: −
[6]; 18 h at 37° C.
  Enz act.: +
  Growth: +
[6]; 24 h at 37° C.
  Enz act.: +
  Growth: +
[7]; 18 h at 37° C.
  Enz act.: +
  Growth: +
[7]; 24 h at 37° C.
  Enz act.: ++
  Growth: +
[8]; 18 h at 37° C.
  Enz act.: ++
  Growth: ++
[8]; 24 h at 37° C.
  Enz act.: ++
  Growth: ++
[9]; 18 h at 37° C.
  Enz act.: ++
  Growth: ++
[9]; 24 h at 37° C.
  Enz act.: ++
  Growth: ++
[10]; 18 h at 37° C.
  Enz act.: ++
  Growth: ++
[10]; 24 h at 37° C.
  Enz act.: ++
  Growth: ++
[11]; 18 h at 37° C.
  Enz act.: ++
  Growth: ++
[11]; 24 h at 37° C.
  Enz act.: ++
  Growth: ++
[12]; 18 h at 37° C.
  Enz act.: ++
  Growth: +
[12]; 24 h at 37° C.
  Enz act.: ++
  Growth: ++

## CO/N=C(\C(=O)N[C@@H]1C(=O)N2C(C(=O)O)=C(COC(N)=O)CS[C@H]12)c1ccco1 [Cefuroxime, cefuroxime]
[1]; 18 h at 37° C.
  Enz act.: ++
  Growth: ++
[1]; 24 h at 37° C.
  Enz act.: ++
  Growth: ++
[2]; 18 h at 37° C.
  Enz act.: ++
  Growth: +
[2]; 24 h at 37° C.
  Enz act.: ++
  Growth: ++
[3]; 18 h at 37° C.
  Enz act.: −
  Growth: −
[3]; 24 h at 37° C.
  Enz act.: −
  Growth: −
[4]; 18 h at 37° C.
  Enz act.: −
  Growth: −
[4]; 24 h at 37° C.
  Enz act.: −
  Growth: −
[5]; 18 h at 37° C.
  Enz act.: ++
  Growth: +
[5]; 24 h at 37° C.
  Enz act.: ++
  Growth: +
[6]; 18 h at 37° C.
  Enz act.: +
  Growth: +
[6]; 24 h at 37° C.
  Enz act.: ++
  Growth: +
[7]; 18 h at 37° C.
  Enz act.: ++
  Growth: ++
[7]; 24 h at 37° C.
  Enz act.: ++
  Growth: ++
[8]; 18 h at 37° C.
  Enz act.: ++
  Growth: ++
[8]; 24 h at 37° C.
  Enz act.: ++
  Growth: ++
[9]; 18 h at 37° C.
  Enz act.: ++
  Growth: ++
[9]; 24 h at 37° C.
  Enz act.: ++
  Growth: ++
[10]; 18 h at 37° C.
  Enz act.: ++
  Growth: ++
[10]; 24 h at 37° C.
  Enz act.: ++
  Growth: ++
[11]; 18 h at 37° C.
  Enz act.: ++
  Growth: ++
[11]; 24 h at 37° C.
  Enz act.: ++
  Growth: ++
[12]; 18 h at 37° C.
  Enz act.: ++
  Growth: ++
[12]; 24 h at 37° C.
  Enz act.: ++
  Growth: ++
